Where a SMILES comes first, the peptide text is derived from it. Bridges are numbered along the chain shown (N, C = ends). [ ]: non-standard residue; d: D form. The star is where a group is joined. hPhe(3-Cl-4-CF3) = N[C@@H](CCc1ccc(C(F)(F)F)c(Cl)c1)C(=O)O; NPrPhe(4-CF3) = CCCN[C@@H](Cc1ccc(C(F)(F)F)cc1)C(=O)O; Piperazinyl(4-(3-oxetanyl)) = C1OCC1N1CCN(*)CC1; NMeGly(cPent) = CN[C@H](C(=O)O)C1CCCC1; NMeD = CN[C@@H](CC(=O)O)C(=O)O; NMeL = CN[C@@H](CC(C)C)C(=O)O; Morpholide = C1CN(*)CCO1; NMeA = CN[C@@H](C)C(=O)O; Ac5c = NC1(C(=O)O)CCCC1; Aze = O=C(O)[C@@H]1CCN1; Ac4c = NC1(C(=O)O)CCC1; Sar = CNCC(=O)O

Experiment [1] deals with GDP-bound HRAS wild-type protein (Homo sapiens, UniProt P01112). Briefly: Binding to HRAS by surface plasmon resonance (SPR), Single Cycle Kinetics. The settings on record: SPR; for HRAS/KRAS (ratio of KD value with respect to HRAS to KD value with respect to KRAS): GDP-bound HRAS wild-type vs GDP-bound KRAS wild-type. On the technique in general: SPR reads the build-up and loss of mass on a sensor chip optically.

In experiment [2] the target is GDP-bound NRAS wild-type protein (Homo sapiens, UniProt P01111). Briefly: Binding to NRAS by surface plasmon resonance (SPR), Single Cycle Kinetics. Particulars: SPR; for NRAS/KRAS (ratio of KD value with respect to NRAS to KD value with respect to KRAS): GDP-bound NRAS wild-type vs GDP-bound KRAS wild-type.
Sequence of GDP-bound NRAS wild-type protein (P01111 whole entry): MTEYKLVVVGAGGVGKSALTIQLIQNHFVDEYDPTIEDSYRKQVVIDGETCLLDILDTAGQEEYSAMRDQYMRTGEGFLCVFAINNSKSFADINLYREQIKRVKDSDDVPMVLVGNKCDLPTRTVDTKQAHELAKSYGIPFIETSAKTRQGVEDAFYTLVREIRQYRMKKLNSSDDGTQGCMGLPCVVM

Sequence of GDP-bound HRAS wild-type protein (P01112 whole entry): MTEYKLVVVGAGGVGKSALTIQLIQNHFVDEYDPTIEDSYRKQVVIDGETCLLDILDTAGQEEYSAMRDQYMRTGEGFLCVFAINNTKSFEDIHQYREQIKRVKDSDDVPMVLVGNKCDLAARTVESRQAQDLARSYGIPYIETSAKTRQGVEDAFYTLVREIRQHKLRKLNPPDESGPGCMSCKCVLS

For `CCC[C@H]1C(=O)N[C@@H]([C@@H](C)CC)C(=O)N(C)CC(=O)N(C)[C@H]2C/C=C\CCN(C2=O)[C@@H](Cc2ccc(C(F)(F)F)cc2)C(=O)N(C)CC(=O)N[C@@H](CCc2ccc(C(F)(F)F)c(Cl)c2)C(=O)N2CC3(CC3)C[C@H]2C(=O)NC2(CC(C)(C)C2)C(=O)N(C)[C@@H](CC(F)(F)F)C(=O)N(C)[C@H](C(=O)N(C)C)CC(=O)N1C` [PP2985], the “HRAS/KRAS (ratio of KD value with respect to GDP-bound HRAS wild-type protein to KD value with respect to KRAS)” value in experiment [1] (GDP-bound wild-type proteins) was “A (a compound having 10 or more and less than 20 is denoted as A)”. For the same compound, in experiment [2] (GDP-bound wild-type proteins), the “NRAS/KRAS (ratio of KD value with respect to GDP-bound NRAS wild-type protein to KD value with respect to KRAS)” value is listed as “AA (a compound having 20 or more is denoted as AA)”.
In the case of `CCCN1C(=O)[C@@H]2CCN2C(=O)[C@H](C)N(C)C(=O)[C@H]([C@@H](C)CC)NC(=O)[C@H](CC(C)C)N(C)C(=O)C[C@@H](C(=O)N2CCN(C3COC3)CC2)N(C)C(=O)[C@H](C2CCCC2)N(C)C(=O)C2(CCCC2)NC(=O)[C@@H]2CCCN2C(=O)[C@H](CCc2ccc(C(F)(F)F)c(Cl)c2)NC(=O)CN(C)C(=O)[C@@H]1Cc1ccc(C(F)(F)F)cc1` [PP0184] ([NMeL]I[NMeA][Aze][NPrPhe(4-CF3)][Sar][hPhe(3-Cl-4-CF3)]P[Ac5c][NMeGly(cPent)][NMeD]-{Piperazinyl(4-(3-oxetanyl))}; lactam N-11), the “HRAS/KRAS (ratio of KD for GDP-bound HRAS wild-type to KD for KRAS)” value in experiment [1] was “B (a compound having 3 or more and less than 10 is denoted as B)”. In addition, the “NRAS/KRAS (ratio of KD for GDP-bound NRAS wild-type to KD for KRAS)” value in experiment [2] was “C (A compound having a KD ratio of 0.1 or more and less than 3 is denoted as C)”.
Turning to `CC[C@H](C)[C@@H]1NC(=O)[C@H](CC(C)C)N(C)C(=O)C[C@@H](C(=O)N2CCOCC2)N(C)C(=O)[C@H](C2CCCC2)N(C)C(=O)C2(CCCC2)NC(=O)[C@@H]2CCCN2C(=O)[C@H](CCc2ccc(C(F)(F)F)c(Cl)c2)NC(=O)CN(C)C(=O)[C@H](Cc2ccc(Cl)cc2)N2C/C=C\CC[C@@H](C2=O)N(C)C(=O)CN(C)C1=O` [PP0608], the “HRAS/KRAS (ratio of KD value with respect to GDP-bound HRAS wild-type protein to KD value with respect to KRAS)” value in experiment [1] was “B (a compound having 3 or more and less than 10 is denoted as B)”. Also, in experiment [2], the “NRAS/KRAS (ratio of KD value with respect to GDP-bound NRAS wild-type protein to KD value with respect to KRAS)” value is “C (A compound having a KD ratio of 0.1 or more and less than 3 is denoted as C)”.
Turning to `CCCO[C@@H]1C[C@H]2C(=O)NC3(CC(C)(C)C3)C(=O)N(C)[C@@H](C3CCCC3)C(=O)N(C)[C@H](C(=O)N(C)C)CC(=O)N(C)[C@H]3CCCCc4ccc(cc4)C[C@@H](C(=O)N(C)CC(=O)N[C@@H](CCc4ccc(C(F)(F)F)c(OC)c4)C(=O)N2C1)N1CC/C=C\C[C@@H](C1=O)N(C)C(=O)CN(C1CC1)C(=O)[C@H]([C@@H](C)CC)NC3=O` [PP3082], in experiment [1] (GDP-bound wild-type proteins), the “HRAS/KRAS (ratio of KD value with respect to GDP-bound HRAS wild-type protein to KD value with respect to KRAS)” value is “B (a compound having 3 or more and less than 10 is denoted as B)”. For the same compound, the “NRAS/KRAS (ratio of KD value with respect to GDP-bound NRAS wild-type protein to KD value with respect to KRAS)” value in experiment [2] (GDP-bound wild-type proteins) was “B (a compound having 3 or more and less than 10 is denoted as B)”.
For the compound `CCCN1C(=O)CN(C)C(=O)[C@@H]2CCN2C(=O)[C@H]([C@@H](C)CC)NC(=O)[C@H](CC(C)C)N(C)C(=O)C[C@@H](C(=O)N2CCOCC2)N(C)C(=O)[C@H](C2CCCC2)N(C)C(=O)C2(CCC2)NC(=O)[C@@H]2CCCN2C(=O)[C@H](CCc2ccc(C(F)(F)F)c(Cl)c2)NC(=O)CN(C)C(=O)[C@@H]1Cc1ccc(C(F)(F)F)cc1` [PP0402] ([NMeL]I[Aze][Sar][NPrPhe(4-CF3)][Sar][hPhe(3-Cl-4-CF3)]P[Ac4c][NMeGly(cPent)][NMeD]-Morpholide; lactam N-11), the “HRAS/KRAS (ratio of KD for GDP-bound HRAS wild-type to KD for KRAS)” value in experiment [1] is “C (A compound having a KD ratio of 0.1 or more and less than 3 is denoted as C)”. For the same compound, the “NRAS/KRAS (ratio of KD for GDP-bound NRAS wild-type to KD for KRAS)” value in experiment [2] was “B (a compound having 3 or more and less than 10 is denoted as B)”.
Take `CCO[C@@H]1C[C@H]2C(=O)NC3(CC(C)(C)C3)C(=O)N(C)[C@@H](C(CC)CC)C(=O)N(C)[C@H](C(=O)N(C)C)CC(=O)N(C)[C@@H](CC3CC3)C(=O)N[C@@H]([C@@H](C)CC)C(=O)N(C)CC(=O)N(C)[C@H]3C/C=C\CCN(C3=O)[C@@H](Cc3ccc(C)cc3)C(=O)N(C)CC(=O)N[C@@H](CCc3ccc(C(F)(F)F)c(Cl)c3)C(=O)N2C1` [PP2142]: the “HRAS/KRAS (ratio of KD value with respect to HRAS to KD value with respect to KRAS)” value in experiment [1] is “A (a compound having 10 or more and less than 20 is denoted as A)”. For the same compound, in experiment [2], the “NRAS/KRAS (ratio of KD value with respect to NRAS to KD value with respect to KRAS)” value is “AA (a compound having 20 or more is denoted as AA)”.
For `CCCO[C@H](C)[C@@H]1NC(=O)[C@H](COCC)N(C)C(=O)C[C@@H](C(=O)N(C)CC)N(C)C(=O)[C@H](C2CCCC2)N(C)C(=O)C2(CC(C)(C)C2)NC(=O)[C@@H]2C[C@H](C)CN2C(=O)[C@H](CCc2cc(F)c(C(F)(F)F)c(F)c2)NC(=O)CN(C)C(=O)[C@H](Cc2ccc(C)cc2)N2CC/C=C\C[C@@H](C2=O)N(C)C(=O)CN(C)C1=O` [PP2426], the “HRAS/KRAS (ratio of KD value with respect to HRAS to KD value with respect to KRAS)” value in experiment [1] was “A (a compound having 10 or more and less than 20 is denoted as A)”. Also, the “NRAS/KRAS (ratio of KD value with respect to NRAS to KD value with respect to KRAS)” value in experiment [2] is given as “AA (a compound having 20 or more is denoted as AA)”.

(Values after US20250230193A1, “CYCLIC COMPOUND HAVING SELECTIVE KRAS INHIBITORY EFFECT ON HRAS AND NRAS” (CHUGAI SEIYAKU KABUSHIKI KAISHA, priority 2022, published 2025).)
